Measurements published in patent publication USRE48335E1, “Polymyxin derivatives as antimicrobial compounds” (priority 2014, dated 2020).
Converted amounts (≈) assume the structure as drawn. Read-outs that look alike come from different tables or passages of the source. Positions of bridges follow the written chain, without caps; N, C: chain ends. Non-standard residues stand in square brackets, D forms with d. Residues, ends and D or L forms follow the SMILES beside them. *: point of attachment. Benzoyl(4-Ph) = O=C(c1ccc(-c2ccccc2)cc1)*; Lauroyl = CCCCCCCCCCCC(=O)*; Decanoyl = CCCCCCCCCC(=O)*; Nonanoyl = CCCCCCCCC(=O)*; Heptanoyl = CCCCCCC(=O)*; Octanoyl = CCCCCCCC(=O)*; Orn = NCCC[C@H](N)C(=O)O; Dab = NCC[C@H](N)C(=O)O; Dap = NC[C@H](N)C(=O)O; PhAc = O=C(Cc1ccccc1)*

Experiments:
Acinetobacter baumannii = system: Acinetobacter baumannii
Method: (§1) MICs of the lipopeptides (trifluoroacetic acid salt, TFA) were determined by broth microdilution in cation-adjusted Mueller-Hinton broth (CAMHB) (Oxoid Australia, Thebarton, SA, Australia) according to Clinical and Laboratory Standards Institute standards (Clinical and Laboratory Standards Institute. Performance standards for antimicrobial susceptibility testing; eighteenth informational supplement M100-S18. Wayne, Pa., 2008). Polymyxin B (sulphate) was employed as control. […]

Enterobacter cloacae = system: Enterobacter cloacae
Method: as §1

Pseudomonas aeruginosa = system: Pseudomonas aeruginosa
Method: as §1

Compound	Minimum inhibitory concentration, Ab A ATCC 17978 (Acinetobacter baumannii) [mg/L]	Minimum inhibitory concentration, Ab ATCC 19606 (Acinetobacter baumannii) [mg/L]	Minimum inhibitory concentration, Ab FADDI-AB034 (Acinetobacter baumannii) [mg/L]	Minimum inhibitory concentration, Ec FADDI-EC001 (Enterobacter cloacae) [mg/L]	Minimum inhibitory concentration, Ec FADDI-EC003 (Enterobacter cloacae) [mg/L]	Minimum inhibitory concentration, Ec FADDI-EC006 (Enterobacter cloacae) [mg/L]	Minimum inhibitory concentration, Pa ATCC 27853 (Pseudomonas aeruginosa) [mg/L]	Minimum inhibitory concentration, Pa FADDI-PA022 (Pseudomonas aeruginosa) [mg/L]	Minimum inhibitory concentration, Pa FADDI-PA025 (Pseudomonas aeruginosa) [mg/L]	Minimum inhibitory concentration, Ab A ATCC 17978 (Acinetobacter baumannii; Acinetobacter baumannii ATCC 17978, broth microdilution in CAMHB) [mg/L]	Minimum inhibitory concentration, Ab ATCC 19606 (Acinetobacter baumannii; Acinetobacter baumannii ATCC 19606, broth microdilution in CAMHB) [mg/L]	Minimum inhibitory concentration, Ab FADDI-AB034 (Acinetobacter baumannii; Acinetobacter baumannii FADDI-AB034, broth microdilution in CAMHB) [mg/L]	Minimum inhibitory concentration, Ec FADDI-EC001 (Enterobacter cloacae; Enterobacter cloacae FADDI-EC001, broth microdilution in CAMHB) [mg/L]	Minimum inhibitory concentration, Ec FADDI-EC003 (Enterobacter cloacae; Enterobacter cloacae FADDI-EC003, broth microdilution in CAMHB) [mg/L]	Minimum inhibitory concentration, Ec FADDI-EC006 (Enterobacter cloacae; Enterobacter cloacae FADDI-EC006, broth microdilution in CAMHB) [mg/L]	Minimum inhibitory concentration, Pa ATCC 27853 (Pseudomonas aeruginosa; Pseudomonas aeruginosa ATCC 27853, broth microdilution in CAMHB) [mg/L]	Minimum inhibitory concentration, Pa FADDI-PA022 (Pseudomonas aeruginosa; Pseudomonas aeruginosa FADDI-PA022, broth microdilution in CAMHB) [mg/L]	Minimum inhibitory concentration, Pa FADDI-PA025 (Pseudomonas aeruginosa; Pseudomonas aeruginosa FADDI-PA025, broth microdilution in CAMHB) [mg/L]
CCCCCCCCCC(=O)N[C@@H](CCN)C(=O)N[C@H](C(=O)N[C@H](CO)C(=O)N[C@H]1CCNC(=O)[C@H]([C@@H](C)O)NC(=O)[C@H](CCN)NC(=O)[C@H](CCN)NC(=O)[C@H]([C@@H](C)O)NC(=O)[C@@H](CC(C)C)NC(=O)[C@H](CCN)NC1=O)[C@@H](C)O [Compound 9] (Decanoyl-[Dab]T[dS][Dab][Dab][dL]T[Dab][Dab]T; lactam 4-C)	1 (≈ 0.863 µM)	0.25 (≈ 0.216 µM)	0.5 (≈ 0.432 µM)	0.5 (≈ 0.432 µM)	1 (≈ 0.863 µM)	1 (≈ 0.863 µM)	4 (≈ 3.45 µM)	8 (≈ 6.91 µM)	32 (≈ 27.6 µM)									
CCCCCCCCCCCC(=O)N[C@@H](CCN)C(=O)N[C@H](C(=O)N[C@H](CO)C(=O)N[C@H]1CCNC(=O)[C@H]([C@@H](C)O)NC(=O)[C@H](CCN)NC(=O)[C@H](CCN)NC(=O)[C@H]([C@@H](C)O)NC(=O)[C@@H](CC(C)C)NC(=O)[C@H](CCN)NC1=O)[C@@H](C)O [Compound 10] (Lauroyl-[Dab]T[dS][Dab][Dab][dL]T[Dab][Dab]T; lactam 4-C)	0.5 (≈ 0.421 µM)	1 (≈ 0.843 µM)	1 (≈ 0.843 µM)	1 (≈ 0.843 µM)	0.5 (≈ 0.421 µM)	1 (≈ 0.843 µM)	2 (≈ 1.69 µM)	4 (≈ 3.37 µM)	4 (≈ 3.37 µM)									
CC(C)C[C@H]1NC(=O)[C@H](CCN)NC(=O)[C@@H](NC(=O)[C@@H](CO)NC(=O)[C@@H](NC(=O)[C@H](CCN)NC(=O)c2ccc(-c3ccccc3)cc2)[C@@H](C)O)CCNC(=O)[C@H]([C@@H](C)O)NC(=O)[C@H](CCN)NC(=O)[C@H](CCN)NC(=O)[C@H]([C@@H](C)O)NC1=O [Compound 11] ({Benzoyl(4-Ph)}-[Dab]T[dS][Dab][Dab][dL]T[Dab][Dab]T; lactam 4-C)	0.5 (≈ 0.422 µM)	2 (≈ 1.69 µM)	1 (≈ 0.844 µM)	0.5 (≈ 0.422 µM)	0.5 (≈ 0.422 µM)	0.5 (≈ 0.422 µM)	4 (≈ 3.38 µM)	4 (≈ 3.38 µM)	32 (≈ 27 µM)									
CC(C)C[C@H]1NC(=O)[C@H](CCN)NC(=O)[C@@H](NC(=O)[C@@H](CO)NC(=O)[C@@H](NC(=O)[C@H](CCN)NC(=O)Cc2ccccc2)[C@@H](C)O)CCNC(=O)[C@H]([C@@H](C)O)NC(=O)[C@H](CCN)NC(=O)[C@H](CCN)NC(=O)[C@H]([C@@H](C)O)NC1=O [Compound 12] (PhAc-[Dab]T[dS][Dab][Dab][dL]T[Dab][Dab]T; lactam 4-C)										4 (≈ 3.56 µM)	4 (≈ 3.56 µM)	4 (≈ 3.56 µM)	0.25 (≈ 0.223 µM)	0.5 (≈ 0.446 µM)	1 (≈ 0.891 µM)	>32	8 (≈ 7.13 µM)	>32
CCCCCCCC(=O)N[C@@H](CN)C(=O)N[C@H](C(=O)N[C@H](CO)C(=O)N[C@H]1CCNC(=O)[C@H]([C@@H](C)O)NC(=O)[C@H](CCN)NC(=O)[C@H](CCN)NC(=O)[C@H]([C@@H](C)O)NC(=O)[C@@H](CC(C)C)NC(=O)[C@H](CCN)NC1=O)[C@@H](C)O [Compound 13] (Octanoyl-[Dap]T[dS][Dab][Dab][dL]T[Dab][Dab]T; lactam 4-C)	1 (≈ 0.896 µM)	1 (≈ 0.896 µM)	0.5 (≈ 0.448 µM)	0.25 (≈ 0.224 µM)	0.25 (≈ 0.224 µM)	0.5 (≈ 0.448 µM)	4 (≈ 3.58 µM)	4 (≈ 3.58 µM)	>32									
CCCCCCCC(=O)N[C@@H](CCCN)C(=O)N[C@H](C(=O)N[C@H](CO)C(=O)N[C@H]1CCNC(=O)[C@H]([C@@H](C)O)NC(=O)[C@H](CCN)NC(=O)[C@H](CCN)NC(=O)[C@H]([C@@H](C)O)NC(=O)[C@@H](CC(C)C)NC(=O)[C@H](CCN)NC1=O)[C@@H](C)O [Compound 14] (Octanoyl-[Orn]T[dS][Dab][Dab][dL]T[Dab][Dab]T; lactam 4-C)	8 (≈ 6.99 µM)	16 (≈ 14 µM)	4 (≈ 3.5 µM)	0.25 (≈ 0.218 µM)	0.5 (≈ 0.437 µM)	4 (≈ 3.5 µM)	>32	8 (≈ 6.99 µM)	>32									
CCCCCCCC(=O)N[C@@H](CCN)C(=O)N[C@H](C(=O)N[C@@H](C(=O)N[C@H]1CCNC(=O)[C@H]([C@@H](C)O)NC(=O)[C@H](CCN)NC(=O)[C@H](CCN)NC(=O)[C@H]([C@@H](C)O)NC(=O)[C@@H](CC(C)C)NC(=O)[C@H](CCN)NC1=O)[C@H](C)O)[C@@H](C)O [Compound 15] (Octanoyl-[Dab]T[dT][Dab][Dab][dL]T[Dab][Dab]T; lactam 4-C)	0.5 (≈ 0.437 µM)	2 (≈ 1.75 µM)	1 (≈ 0.874 µM)	1 (≈ 0.874 µM)	2 (≈ 1.75 µM)	1 (≈ 0.874 µM)	16 (≈ 14 µM)	16 (≈ 14 µM)	>32									
CCCCCCC(=O)N[C@@H](CCN)C(=O)N[C@H](C(=O)N[C@H](CO)C(=O)N[C@H]1CCNC(=O)[C@H]([C@@H](C)O)NC(=O)[C@H](CCN)NC(=O)[C@H](CCN)NC(=O)[C@H]([C@@H](C)O)NC(=O)[C@@H](CC(C)C)NC(=O)[C@H](CCN)NC1=O)[C@@H](C)O [Compound 16] (Heptanoyl-[Dab]T[dS][Dab][Dab][dL]T[Dab][Dab]T; lactam 4-C)	0.5 (≈ 0.448 µM)	2 (≈ 1.79 µM)	2 (≈ 1.79 µM)	0.5 (≈ 0.448 µM)	0.25 (≈ 0.224 µM)	0.25 (≈ 0.224 µM)	4 (≈ 3.58 µM)	4 (≈ 3.58 µM)	>32									
CCCCCCCCC(=O)N[C@@H](CCN)C(=O)N[C@H](C(=O)N[C@H](CO)C(=O)N[C@H]1CCNC(=O)[C@H]([C@@H](C)O)NC(=O)[C@H](CCN)NC(=O)[C@H](CCN)NC(=O)[C@H]([C@@H](C)O)NC(=O)[C@@H](CC(C)C)NC(=O)[C@H](CCN)NC1=O)[C@@H](C)O [Compound 17] (Nonanoyl-[Dab]T[dS][Dab][Dab][dL]T[Dab][Dab]T; lactam 4-C)	<0.125	<0.125	0.25 (≈ 0.218 µM)	0.25 (≈ 0.218 µM)	0.25 (≈ 0.218 µM)	0.5 (≈ 0.437 µM)	2 (≈ 1.75 µM)	4 (≈ 3.5 µM)	16 (≈ 14 µM)									
